By IC50 is commonly meant the concentration that gives 50% inhibition. As usually defined, the EC50 is the concentration that produces a half-maximal response. Usually ED50 stands for the dose that gives a 50% effect, or the effect in half of the subjects.

Values after ≈ are worked out from the molar mass of the structure shown.

Here are results for 10 compounds from ChEMBL document CHEMBL5230160, “Chemotherapeutics for Toxoplasma gondii: Molecular Biotargets, Binding Modes, and Structure-Activity Relationship Investigations” (J Med Chem, 2021).

The test system of data set [1] is Toxoplasma gondii. The experiment in a line: Antiparasitic activity against Toxoplasma gondii RH tachyzoites infected in HFF cells in presence of CPRG by crystal violet staining based analysis. The class given is functional, organism-based.
Data set [2] can be described thus: Inhibition of Toxoplasma gondii GST-taggged IF2Kalpha in presence of ATP by ADP-Glo kinase assay.
Data set [3] concerns Toxoplasma gondii. In words: Antiparasitic activity against Toxoplasma gondii infected in mouse at 50 mg/kg assessed as reduction in parasitic growth. The class given is functional. Further details: scale not given: the % may be the effect or the level left.
Data set [4] concerns Toxoplasma gondii. In words: Antiparasitic activity against Toxoplasma gondii tachyzoites. It is filed as functional, organism-based. Conditions: Toxoplasma gondii; read-out: EC50.
Data set [5] can be described thus: Inhibition of Toxoplasma gondii HDAC3.
The nature of data set [6]: Inhibition of Toxoplasma gondii DHFR.
Data set [7] concerns the target T1, Dihydrofolate reductase (Homo sapiens, UniProt P00374).
T1 sequence (P00374 whole entry): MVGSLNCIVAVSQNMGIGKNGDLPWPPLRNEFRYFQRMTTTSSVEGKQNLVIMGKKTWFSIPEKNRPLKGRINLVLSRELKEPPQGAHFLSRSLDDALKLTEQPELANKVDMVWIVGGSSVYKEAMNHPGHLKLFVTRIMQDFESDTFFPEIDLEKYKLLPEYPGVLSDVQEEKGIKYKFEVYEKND
The experiment in a line: Inhibition of human DHFR.

Data set [8] concerns Toxoplasma gondii. In words: Antiparasitic activity against Toxoplasma gondii RH tachyzoites infected in mouse BV-2 cells assessed as parasitic growth inhibition at 100 ug/ml by inverted fluorescence microscopic analysis relative to control. It is filed as functional. Also on record: scale not given: the % may be the effect or the level left. Conditions: dose 100 µg/ml.
In data set [9] the test system is Toxoplasma gondii. The experiment in a line: Antiparasitic activity against Toxoplasma gondii RH tachyzoites infected in human foreskin fibroblast at 1 uM incubated for 24 hrs by phase-contrast microscopy relative to control. It is filed as functional.
Data set [10] relates to Toxoplasma gondii. In words: Antiparasitic activity against Toxoplasma gondii infected in CF-1 mouse. It is filed as functional.
Data set [11] relates to Toxoplasma gondii. In words: Antiparasitic activity against Toxoplasma gondii. The class given is functional, organism-based.
Data set [12] has as its system Toxoplasma gondii. In words: Antiparasitic activity against Toxoplasma gondii infected in HFF cells incubated for 3 days by absorbance based analysis. It is filed as functional, organism-based. The following applies: 72 h.
Data set [13] concerns Toxoplasma gondii. The experiment in a line: Antiparasitic activity against Toxoplasma gondii infected in African green monkey Vero cells assessed as parasitic growth inhibition incubated for 24 hrs by PCR method. It is filed as functional, organism-based.
In data set [14] the test system is Toxoplasma gondii. In words: Antiparasitic activity against Toxoplasma gondii infected in HFF cells assessed as parasitic growth inhibition by MTT assay. It is filed as functional, organism-based. Background: Formazan colour is commonly taken as a measure of viable cells.
The nature of data set [15]: Selectivity index, ratio of IC50 for inhibition of Toxoplasma gondii HDAC3 to IC50 for antiparasitic activity against Toxoplasma gondii infected in HFF cells. Conditions: human. It is filed as toxicity, cell-based.
Data set [16] deals with Histone deacetylase 1 (Homo sapiens, UniProt Q13547). The experiment in a line: Inhibition of HDAC1 in human HeLa nuclear extract incubated for 30 mins by fluorescence based analysis. It is filed as cell-free.
The test system of data set [17] is Toxoplasma gondii. In words: Antiparasitic activity against Toxoplasma gondii type II infected in human foreskin fibroblast incubated for 24 hrs by Hoechst staining based microscopic analysis. It is filed as functional, organism-based.
Data set [18] deals with Toxoplasma gondii. In words: Antiparasitic activity against Toxoplasma gondii type I infected in human foreskin fibroblast incubated for 24 hrs by Hoechst staining based microscopic analysis. The class given is functional, organism-based.

Histone deacetylase 1, sequence (Q13547 whole entry): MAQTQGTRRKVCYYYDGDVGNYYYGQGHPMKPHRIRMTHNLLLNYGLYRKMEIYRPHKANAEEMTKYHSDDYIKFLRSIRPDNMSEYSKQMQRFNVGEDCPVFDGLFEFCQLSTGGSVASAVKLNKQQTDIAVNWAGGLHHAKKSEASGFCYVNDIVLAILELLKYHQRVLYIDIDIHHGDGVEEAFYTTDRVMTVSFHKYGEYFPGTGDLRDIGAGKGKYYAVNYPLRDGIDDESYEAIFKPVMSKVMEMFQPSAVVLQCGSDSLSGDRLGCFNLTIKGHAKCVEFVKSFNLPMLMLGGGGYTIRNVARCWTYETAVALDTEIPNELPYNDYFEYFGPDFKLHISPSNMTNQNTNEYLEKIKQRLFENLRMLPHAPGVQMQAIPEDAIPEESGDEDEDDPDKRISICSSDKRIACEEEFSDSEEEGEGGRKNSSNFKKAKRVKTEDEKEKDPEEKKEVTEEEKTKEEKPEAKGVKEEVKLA

Take `Cn1cc(-c2ccc3c(c2)CCN3C(=O)Cc2cccc(C(F)(F)F)c2)c2c(N)ncnc21`: the half-inhibitory concentration (IC50) amounted to 620 nM in data set [1] and 0.4 nM in [2].

As for `C/C=C/c1cc(OC)c2c(c1)[C@@H](C)[C@H](c1ccc3c(c1)OCO3)O2` [LICARINE B], the Activity in data set [3] stood at 90%. Further, the EC50 in data set [4] was 14 µg/mL (≈ 43.3 µM).

As to `CC[C@]1(C)NC(=O)[C@H](CCCCCC(=O)[C@@H](C)O)NC(=O)[C@H]2CCCN2C(=O)[C@H](Cc2ccccc2)NC1=O`, the IC50 in [5] is 22 nM.

`COc1ccc(OC)c(CN(C)c2cnc3nc(N)nc(N)c3c2)c1`: the IC50 in data set [6] worked out at 29 nM; in [7], 26 nM.

In the case of `CC(C)=CCC[C@](C)(O)[C@H]1CC[C@]2(C)[C@@H]1[C@H](O)C[C@@H]1[C@@]3(C)CC[C@H](O[C@@H]4O[C@H](CO)[C@@H](O)[C@H](O)[C@H]4O)C(C)(C)[C@@H]3CC[C@]12C` [GINSENOSIDE RH2], the Activity in data set [8] is recorded as 63.4%.

As to `CCCCCCCCCCCCc1c(C)n(O)c2ccc(OCCN(C)C)cc2c1=O`, the Activity in data set [9] came out at 38%.

Compound `O=C1C(O)=C([C@H]2CC[C@H](c3ccc(Cl)cc3)CC2)C(=O)c2ccccc21` [ATOVAQUONE] showed an ED50 in data set [10] of 2.53 mg/kg/day. The compound further came in with an IC50 in [11] of 2.4 nM. This compound also showed an EC50 in data set [12] of 32 nM.

For the compound `C=CCc1cc(OC)c(O[C@@H](C)[C@H](O)c2ccc(O)c(OC)c2)c(OC)c1`, in [13], the EC50 is 32.4 µg/mL (≈ 86.6 µM).

With `CC[C@]1(C)NC(=O)[C@H](CCCCCC(=O)[C@@H](C)OC(=S)Oc2ccccc2)NC(=O)[C@H]2C[C@H](C)CN2C(=O)[C@H](Cc2ccccc2)NC1=O`, in [14], the EC50 was found to be 11.3 nM. The “Ratio IC50” value in data set [15] is given as 47.7.

With `COc1cccc(CC(=O)Nc2ccc(C(=O)NO)cc2)c1`, the figures for the IC50 in data set [16], in data set [17] and in data set [18] were 495 nM, 2270 nM and 350 nM, respectively.
